One compound from PMC11678425, “(-)-Syringaresinol Exerts an Antidepressant-like Activity in Mice by Noncompetitive Inhibition of the Serotonin Transporter” (Pharmaceuticals, 2024) can be followed below.

For assay [1], the target named is T1, hSERT Y95F (Homo sapiens, UniProt P31645, Y95F).
T1 construct: forward and reverse primers were used to amplify a full-length hSERT; expressed in transfected cells; host or cells: HeLa
Nature of the assay: APP^+ uptake, hSERT Y95F. The format is cell-based. The settings on record: S1 site mutant, read-out: SYR IC50 for Transport. As for the experimental part:
(§1) HeLa cells were cultured in Dulbecco’s Modified Eagle’s Medium supplemented with 10% fetal bovine serum, 100 units/mL penicillin, and 100 μg/mL streptomycin at 37 °C in a humidified 5% CO2 incubator. Cells grown at ~70% confluence in a 6 cm culture dish were transfected with hSERT cDNA in pcDNA3.1 by lipofectamine 2000. Transfected cells were incubated for 12 h at 37 °C with 5% CO2 and then transferred into 96-well plates. After being grown for an additional 12–16 h, the cells were then assayed for APP^+ uptake or ASP^+ binding.
Measurement of transport or ligand binding activity of SERT was performed by using its fluorescent substrate (APP^+) or ligand (ASP^+), respectively. The cells transiently expressing WT or mutants of hSERT were applied for various treatments. Briefly, the cells were washed twice with 100 μL KRH buffer containing 20 mM HEPES (Neofroxx, Einhausen, Germany), pH 7.4, 120 mM NaCl, 1.3 mM KCl, 2.2 mM CaCl2, 1.2 mM MgSO4, and 0.1% (w/v) glucose. APP^+ uptake was measured by adding 100 μL KRH buffer containing 2 μM APP^+ and incubating for 5 min at 22 °C. Excess APP^+ was then removed by 3× rapid washing with 100 μL KRH buffer each time. The extent of APP^+ accumulated in the cells was determined by fluorescence spectrometry with an Infinite 200 Pro microplate reader (Tecan, Männedorf, Switzerland). […]

Assay [2] concerns the target T2, hSERT F556A (Homo sapiens, UniProt P31645, F556A).
T2 construct: forward and reverse primers were used to amplify a full-length hSERT; expressed in transfected cells; host or cells: HeLa cells, transient, pcDNA3.1
Nature of the assay: ASP^+ binding, hSERT F556A. The following applies: S2 site mutant, read-out: SYR IC50 for Binding.

Assay [3] deals with T3, hSERT D328A (Homo sapiens, UniProt P31645, D328A).
T3 construct: forward and reverse primers were used to amplify a full-length hSERT; expressed in transfected cells; host or cells: HeLa cells, transient, pcDNA3.1
Nature of the assay: APP^+ uptake, hSERT D328A. The format is cell-based. The settings on record: S2 site mutant, read-out: SYR IC50 for Transport.

Assay [4] deals with SERT S277C/X5C. The experiment in a line: Cysteine accessibility, cytoplasmic pathway: MTSEA reactivity with S277C/X5C. The format is cell-based. The following applies: 10 μM ligand, digitonin-permeabilized cells, compared with the control.
In assay [5] the test system is hSERT S2 mutants. The experiment in a line: APP^+ uptake or ASP^+ binding, all S2 mutants compared with WT. In kind it is cell-based, human. The following applies: all S2 mutants tested. How it is done: as §1
Measurement of transport or ligand binding activity of SERT was performed by using its fluorescent substrate (APP^+) or ligand (ASP^+), respectively. The cells transiently expressing WT or mutants of hSERT were applied for various treatments. […] APP^+ uptake was measured by adding 100 μL KRH buffer containing 2 μM APP^+ and incubating for 5 min at 22 °C. […] The extent of APP^+ accumulated in the cells was determined by fluorescence spectrometry with an Infinite 200 Pro microplate reader (Tecan, Männedorf, Switzerland).
ASP^+ binding to SERT expressed on the cell surface was measured with digitonin-permeabilized cells as described previously. […] After removing excess ASP^+ by 3× rapid washing, ASP^+ fluorescence retained in the cell membrane was determined by fluorescence spectrometry. […]

Assay [6] relates to CUMS mice. The experiment in a line: Tail suspension test (TST) in CUMS mice. The format is in vivo, mouse. How it is done: C57BL/6 adult (6–8 weeks, body weight, 18–22 g) male mice were maintained and handled in a standard condition at the Experimental Animal Center of Southern Medical University (Guangzhou, China). Animal use was approved by the Animal Use and Care Committee of Southern Medical University (approved code: SMUL2021177, approved date: 12 December 2021). The CUMS procedure was carried out according to a protocol described previously. Except for those in the control group, mice were randomly exposed to two mild unpredictable stressors per day for 3 weeks. The stressors included water deprivation, restraint, tilted cage, wet/no bedding, rotation, peppermint, noise, and inverted light off/on. Mice in the control group were group housed without any stressors throughout the procedure. […] NSFT was performed after 16 h food deprivation, as described previously. The mouse was placed in an open field (24 × 40 × 14 cm), where a new chow was put in the center, and the latency time to bite food was counted over 10 min. Home cage feeding within a 20 min period was measured after the test. FST was carried out according to a protocol described previously. The mouse was placed into a beaker (Bomex, Beijing, China) with a height of 18 cm filled with water (22 ± 1 °C) for 6 min. The immobile time was measured during minutes 2–6. TST was performed according to a previous description. The mouse was suspended from a hook that hung from a suspension bar by placing a piece of adhesive tape on its tail about 1 cm away from the tip. The immobile time during minutes 2–6 was measured.

Assay [7] has as its target T1, hSERT Y95F. The experiment in a line: ASP^+ binding, hSERT Y95F. The following applies: S1 site mutant, read-out: SYR IC50 for Binding.
The target in assay [8] is T4, hSERT T583A (Homo sapiens, UniProt P31645, T583A).
T4 construct: forward and reverse primers were used to amplify a full-length hSERT; expressed in transfected cells; host or cells: HeLa
Nature of the assay: APP^+ uptake, hSERT T583A. In kind it is cell-based. The settings on record: S2 site mutant, read-out: SYR IC50 for Transport.

The target of assay [9] is T5, hSERT Y579A (Homo sapiens, UniProt P31645, Y579A).
T5 construct: forward and reverse primers were used to amplify a full-length hSERT; expressed in transfected cells; host or cells: HeLa
The experiment in a line: APP^+ uptake, hSERT Y579A. In kind it is cell-based. The settings on record: S2 site mutant, read-out: SYR IC50 for Transport.

Assay [10] has as its target T6, hSERT L563A (Homo sapiens, UniProt P31645, L563A).
T6 construct: forward and reverse primers were used to amplify a full-length hSERT; expressed in transfected cells; host or cells: HeLa
Nature of the assay: APP^+ uptake, hSERT L563A. The format is cell-based. The following applies: S2 site mutant, read-out: SYR IC50 for Transport.

Assay [11] deals with T7, hSERT Q562N (Homo sapiens, UniProt P31645, Q562N).
T7 construct: forward and reverse primers were used to amplify a full-length hSERT; expressed in transfected cells; host or cells: HeLa
The experiment in a line: APP^+ uptake, hSERT Q562N. In kind it is cell-based. The settings on record: S2 site mutant, read-out: SYR IC50 for Transport.

The target of assay [12] is T2, hSERT F556A. Nature of the assay: APP^+ uptake, hSERT F556A. In kind it is cell-based. The settings on record: S2 site mutant, read-out: SYR IC50 for Transport.

Structures are written as SMILES.

T2 sequence (P31645 whole entry F556A): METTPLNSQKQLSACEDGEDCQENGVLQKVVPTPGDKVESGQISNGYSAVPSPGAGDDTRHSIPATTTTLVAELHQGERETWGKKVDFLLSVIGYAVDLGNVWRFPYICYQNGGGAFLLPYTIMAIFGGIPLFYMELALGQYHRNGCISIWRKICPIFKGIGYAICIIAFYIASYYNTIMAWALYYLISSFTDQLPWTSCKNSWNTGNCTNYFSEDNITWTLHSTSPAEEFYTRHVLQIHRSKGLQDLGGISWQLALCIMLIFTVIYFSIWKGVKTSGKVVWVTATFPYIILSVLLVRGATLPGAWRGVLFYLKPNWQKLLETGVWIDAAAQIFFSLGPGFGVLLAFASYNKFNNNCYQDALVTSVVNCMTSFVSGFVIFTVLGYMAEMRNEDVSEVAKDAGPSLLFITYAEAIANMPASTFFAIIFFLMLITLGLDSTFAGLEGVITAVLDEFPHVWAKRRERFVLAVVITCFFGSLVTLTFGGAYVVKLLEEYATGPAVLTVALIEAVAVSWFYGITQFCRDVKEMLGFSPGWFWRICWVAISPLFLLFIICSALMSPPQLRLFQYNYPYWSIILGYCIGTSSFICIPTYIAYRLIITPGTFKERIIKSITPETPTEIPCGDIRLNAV
T1 sequence (P31645 whole entry Y95F): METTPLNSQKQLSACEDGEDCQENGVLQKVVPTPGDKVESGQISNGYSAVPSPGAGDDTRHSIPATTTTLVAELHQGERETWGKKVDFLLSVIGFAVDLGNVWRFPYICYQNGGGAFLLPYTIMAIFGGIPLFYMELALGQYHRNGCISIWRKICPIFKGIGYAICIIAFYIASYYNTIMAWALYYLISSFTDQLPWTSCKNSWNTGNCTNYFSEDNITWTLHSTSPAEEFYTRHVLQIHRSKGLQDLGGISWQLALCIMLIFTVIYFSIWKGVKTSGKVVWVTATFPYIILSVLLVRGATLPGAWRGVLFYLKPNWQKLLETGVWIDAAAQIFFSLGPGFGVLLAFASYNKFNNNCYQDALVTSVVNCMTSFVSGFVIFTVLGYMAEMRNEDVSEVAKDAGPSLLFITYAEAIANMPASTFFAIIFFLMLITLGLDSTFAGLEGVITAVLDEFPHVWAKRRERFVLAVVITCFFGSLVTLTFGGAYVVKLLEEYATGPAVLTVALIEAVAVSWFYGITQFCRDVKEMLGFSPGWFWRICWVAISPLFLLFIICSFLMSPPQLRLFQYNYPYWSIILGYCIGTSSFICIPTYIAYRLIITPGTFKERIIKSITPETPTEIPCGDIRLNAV
T6 sequence (P31645 whole entry L563A): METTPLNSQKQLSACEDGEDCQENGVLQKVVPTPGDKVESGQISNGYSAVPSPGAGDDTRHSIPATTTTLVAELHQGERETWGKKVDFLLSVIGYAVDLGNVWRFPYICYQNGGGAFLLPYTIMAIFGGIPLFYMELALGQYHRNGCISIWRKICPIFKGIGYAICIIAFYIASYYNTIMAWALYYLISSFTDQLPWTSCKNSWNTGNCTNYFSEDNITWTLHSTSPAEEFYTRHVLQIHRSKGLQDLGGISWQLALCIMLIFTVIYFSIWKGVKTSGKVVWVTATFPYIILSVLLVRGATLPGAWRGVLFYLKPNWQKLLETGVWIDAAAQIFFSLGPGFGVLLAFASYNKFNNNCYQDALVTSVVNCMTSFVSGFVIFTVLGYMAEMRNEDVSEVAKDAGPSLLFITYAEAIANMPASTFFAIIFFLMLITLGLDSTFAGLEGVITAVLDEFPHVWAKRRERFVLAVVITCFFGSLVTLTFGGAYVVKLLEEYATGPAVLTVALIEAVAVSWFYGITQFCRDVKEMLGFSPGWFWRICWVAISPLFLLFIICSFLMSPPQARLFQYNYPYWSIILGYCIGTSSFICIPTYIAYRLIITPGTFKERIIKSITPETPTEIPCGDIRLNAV
T5 sequence (P31645 whole entry Y579A): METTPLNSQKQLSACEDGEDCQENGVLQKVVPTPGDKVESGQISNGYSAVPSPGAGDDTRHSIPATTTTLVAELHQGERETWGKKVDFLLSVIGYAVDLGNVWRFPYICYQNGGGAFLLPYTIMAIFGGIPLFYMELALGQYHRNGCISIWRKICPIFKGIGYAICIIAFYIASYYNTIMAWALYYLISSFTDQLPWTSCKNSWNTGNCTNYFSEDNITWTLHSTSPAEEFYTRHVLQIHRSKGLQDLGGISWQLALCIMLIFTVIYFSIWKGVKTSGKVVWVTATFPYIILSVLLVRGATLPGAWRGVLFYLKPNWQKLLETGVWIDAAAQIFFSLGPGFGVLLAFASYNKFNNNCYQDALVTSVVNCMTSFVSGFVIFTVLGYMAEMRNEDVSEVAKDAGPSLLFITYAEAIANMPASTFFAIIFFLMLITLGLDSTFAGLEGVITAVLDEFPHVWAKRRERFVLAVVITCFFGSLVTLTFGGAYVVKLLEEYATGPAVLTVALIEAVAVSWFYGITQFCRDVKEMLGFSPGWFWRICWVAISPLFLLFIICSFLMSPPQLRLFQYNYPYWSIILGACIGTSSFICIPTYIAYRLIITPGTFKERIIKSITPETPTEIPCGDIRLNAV
T4 sequence (P31645 whole entry T583A): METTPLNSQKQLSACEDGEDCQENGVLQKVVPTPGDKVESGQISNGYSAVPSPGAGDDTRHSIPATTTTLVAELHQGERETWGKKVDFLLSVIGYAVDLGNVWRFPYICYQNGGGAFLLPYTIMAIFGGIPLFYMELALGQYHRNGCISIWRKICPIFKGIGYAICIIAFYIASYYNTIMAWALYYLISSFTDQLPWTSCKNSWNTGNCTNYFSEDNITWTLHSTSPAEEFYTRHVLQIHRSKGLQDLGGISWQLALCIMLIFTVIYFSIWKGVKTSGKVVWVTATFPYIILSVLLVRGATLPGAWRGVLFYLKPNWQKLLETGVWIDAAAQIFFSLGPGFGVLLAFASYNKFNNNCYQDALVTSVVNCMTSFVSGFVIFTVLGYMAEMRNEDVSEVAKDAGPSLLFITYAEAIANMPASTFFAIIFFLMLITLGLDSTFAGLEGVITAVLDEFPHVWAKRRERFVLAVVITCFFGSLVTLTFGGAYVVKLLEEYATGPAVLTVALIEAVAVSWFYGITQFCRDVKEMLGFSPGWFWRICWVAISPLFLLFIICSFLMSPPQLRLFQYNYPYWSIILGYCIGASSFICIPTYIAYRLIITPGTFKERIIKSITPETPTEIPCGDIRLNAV
T3 sequence (P31645 whole entry D328A): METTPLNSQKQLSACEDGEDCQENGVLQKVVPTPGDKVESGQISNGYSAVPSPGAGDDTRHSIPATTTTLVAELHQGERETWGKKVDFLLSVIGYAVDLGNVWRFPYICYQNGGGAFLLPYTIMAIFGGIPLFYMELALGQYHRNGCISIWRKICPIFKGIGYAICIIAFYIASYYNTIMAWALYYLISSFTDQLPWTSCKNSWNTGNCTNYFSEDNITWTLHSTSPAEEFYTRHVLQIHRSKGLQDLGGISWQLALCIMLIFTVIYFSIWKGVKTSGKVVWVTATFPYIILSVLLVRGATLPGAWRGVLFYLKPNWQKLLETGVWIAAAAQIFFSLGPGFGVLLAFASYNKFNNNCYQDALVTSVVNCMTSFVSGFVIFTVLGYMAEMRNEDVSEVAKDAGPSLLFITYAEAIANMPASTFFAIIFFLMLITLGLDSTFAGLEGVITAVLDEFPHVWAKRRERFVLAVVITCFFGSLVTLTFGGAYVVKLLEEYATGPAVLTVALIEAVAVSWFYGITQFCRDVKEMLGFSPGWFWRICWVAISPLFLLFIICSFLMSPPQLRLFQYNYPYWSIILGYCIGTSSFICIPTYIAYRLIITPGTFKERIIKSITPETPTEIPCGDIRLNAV
T7 sequence (P31645 whole entry Q562N): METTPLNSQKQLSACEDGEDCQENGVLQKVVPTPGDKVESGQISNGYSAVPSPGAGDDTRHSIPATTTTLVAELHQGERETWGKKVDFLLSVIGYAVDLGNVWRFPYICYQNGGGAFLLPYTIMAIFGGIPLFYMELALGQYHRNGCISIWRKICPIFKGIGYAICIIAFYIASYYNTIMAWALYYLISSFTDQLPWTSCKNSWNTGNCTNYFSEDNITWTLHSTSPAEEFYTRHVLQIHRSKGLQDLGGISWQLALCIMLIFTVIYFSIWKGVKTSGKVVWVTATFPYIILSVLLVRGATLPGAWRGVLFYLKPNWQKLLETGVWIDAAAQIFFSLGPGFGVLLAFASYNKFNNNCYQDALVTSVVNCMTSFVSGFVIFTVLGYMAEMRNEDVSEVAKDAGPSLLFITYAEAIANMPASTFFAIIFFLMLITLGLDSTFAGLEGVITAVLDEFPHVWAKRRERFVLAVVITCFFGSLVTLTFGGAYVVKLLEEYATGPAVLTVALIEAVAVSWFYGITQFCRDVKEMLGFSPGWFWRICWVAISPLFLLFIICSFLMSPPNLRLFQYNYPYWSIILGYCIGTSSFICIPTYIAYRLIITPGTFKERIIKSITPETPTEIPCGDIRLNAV

What is called IC50 is the midpoint of a concentration-inhibition curve. For `COc1cc([C@@H]2OC[C@@H]3[C@H]2CO[C@H]3c2cc(OC)c(O)c(OC)c2)cc(OC)c1O` [SYR, (-)-syringaresinol], the IC50 came out at 2.64 ± 0.12 µM in [1]; 21.6 ± 1.2 µM in [2]; 19.6 ± 1.21 µM in assay [3]; 1.21 ± 0.01 µM in assay [7]; 8.68 ± 1.4 µM in [8]; 16.3 ± 1.06 µM in [9]. Also, the IC50 was determined as 6.28 ± 0.57 µM in assay [10], 48.8 ± 4.51 µM in [11] and 7.39 ± 1.12 µM in assay [12]. Also, the “rate constant of MTSEA reactivity with S277C/X5C” value in assay [4] is listed as “decreased”. In assay [5], the “increase of SYR IC50 for APP^+ uptake or ASP^+ binding compared with WT” value was “more than 10 fold”. In addition, the “CUMS-induced increase in immobility time in TST” value in [6] (5 mg/kg, i.p., once per day day 7 to 21) is “effectively attenuate”. The “effect in TST” value in assay [6] (10 or 20 mg/kg (i.p.)) is recorded as “remarkable antidepressant-like effects”.
